# Assay results reported in article PMC6630718, “Discovery of Novel UV-Filters with Favorable Safety Profiles in the 5-Arylideneimidazolidine-2,4-dione Derivatives Group” (Molecules, 2019).
# Test: Solubility in cosmetic solvents / macrogol formulations
# Assay type: physicochemical
# Conditions: typical cosmetic solvents / formulations used
# Text: The composition of formulations and concentration of tested compounds were based on their limited solubility. N-monosubstituted compounds 2a–2e were insoluble at desirable concentrations in the typical solvents used in cosmetic formulations such as alcohols, triacetin, surfactants, and co-surfactants. To dissolve compounds 2a and 2b before incorporation to the formulation DMSO: Tween 20 (1:9 w/w) was used, for less soluble 2c–2e it was necessary to use DMSO alone as solvent. […] Thus the detailed composition of the formulations is as follows: F1–Tween 20 43.2%, PEG-400 25%, PEG-1500 25%, Triacetin 4.8%, tested compound 2%; F2–Tween 20 43.2%, PEG-400 25%, PEG-1500 25%, DMSO 4.8%, tested compound 2%; F3–PEG-400 25%, PEG-1500 25%, DMSO 48%, tested compound 2%. Considering the disadvantages of currently reported macrogol formulations and the low concentration achieved for the tested compounds (2%), we plan to work on cosmetic emulsions containing the most promising derivatives at higher concentrations as well as required excipients including preservatives, antioxidants, etc. This research will be carried out in the near future.
compound,measurement,value
"CCOC(=O)CN1C(=O)/C(=C/c2ccc(OC)cc2)N(CC(=O)OCC)C1=O [Compound 3b, Diethyl 2,2′-((Z)-4-(4-methoxybenzylidene)-2,5-dioxoimidazolidine-1,3-diyl)diacetate]",solubility (in words),very good solubility
